This assay addresses T1, TNF-α (Homo sapiens, UniProt P01375).
T1 construct: purchased R&D 210-TA-020/CF
The assay is described as follows: TNF-α Induced HEK Blue Cellular Assay (secreted alkaline phosphatase expression, QUANTI-Blue). The conditions noted are these: HEK Blue TNFα reporter cells; TNF-α 100 μg/ml; 24 hrs at 37° C.; inhibition of secreted alkaline phosphatase; read-out: IC50 value. It is filed as cell-based. The procedure: TNF-α Induced HEK Blue Cellular Assay
Test articles were diluted in DMSO and serially diluted into 384 well assay plate (Corning 3765), at final concentrations ranging from […] to 0.5 nM. HEK Blue™ TNFα reporter cells were added at a final density of 10,000 cell per well in assay media [DMEM (Gibco, cat #21063-029), 10% fetal bovine serum (ExcelBio, cat #FND500), 1% Penicillin-Streptomycin (Solarbio, cat #P1400-100]. TNF-α (R&D 210-TA-020/CF) was then added to the assay plate at a final concentration of […]. This plate was then incubated for 24 hrs at 37° C. and 5% CO2. Secreted alkaline phosphatase expression was then measured using QUANTI-Blue™ (Invivogen), according to manufacturer instructions and read on an Envision microplate reader at 620 nm.
Inhibition data for test compound over a range of concentration was plotted as percentage inhibition of the test compound (100%=maximum inhibition). IC50 values were determined after correcting for background [(sample read-mean of low control)/(mean of high control-mean of low control)] whereby the low control is DMSO without stimulation and high control is DMSO with stimulation. The IC50 is defined as the concentration of test compound which produces 50% inhibition and was quantified using the 4 parameter logistic equation to fit the data.

SMILES strings stand for the structures.

Our source for the IC50 values is patent publication US20260365682A1, “MODULATORS OF TNF-ALPHA ACTIVITY” (Forward Therapeutics, Inc., priority 2022, published 2026).

T1 sequence (P01375 77-233 limits assumed): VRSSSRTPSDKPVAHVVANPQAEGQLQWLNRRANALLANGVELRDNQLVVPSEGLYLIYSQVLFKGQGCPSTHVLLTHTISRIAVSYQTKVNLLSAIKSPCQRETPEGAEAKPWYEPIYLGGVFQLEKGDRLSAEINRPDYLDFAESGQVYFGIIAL

In general, IC50 refers to the concentration that gives 50% inhibition. For `[2H]C([2H])([2H])N1C(=O)c2cccc(OC(F)F)c2[C@H]2C[C@@H]1c1nc3ccc(C#Cc4cnc(C(C)(C)O)nc4)cc3n12` [Example 16, (7R,14R)-1-(difluoromethoxy)-11-((2-(2-hydroxypropan-2-yl)pyrimidin-5-yl)ethynyl)-6-(methyl-d3)-6,7-dihydro-7,14-methanobenzo[f]benzo[4,5]imidazo[1,2-a][1,4]diazocin-5(14H)-one], the IC50 is < 100 nM.
For `[2H]C([2H])([2H])N1C(=O)c2cccc(OC(F)F)c2[C@H]2C[C@@H]1c1nc3ccc(C#Cc4cncn4C)cc3n12` [Example 17, (7R,14R)-1-(difluoromethoxy)-6-(methyl-d3)-11-((1-methyl-1H-imidazol-5-yl)ethynyl)-6,7-dihydro-7,14-methanobenzo[f]benzo[4,5]imidazo[1,2-a][1,4]diazocin-5(14H)-one] the value was < 100 nM.
As for `[2H]C([2H])([2H])N1C(=O)c2cccc(OC(F)F)c2[C@H]2C[C@@H]1c1nc3ccc(C#Cc4cn(C)nn4)cc3n12` [Example 18, (7R,14R)-1-(difluoromethoxy)-6-(methyl-d3)-11-((1-methyl-1H-1,2,3-triazol-4-yl)ethynyl)-6,7-dihydro-7,14-methanobenzo[f]benzo[4,5]imidazo[1,2-a][1,4]diazocin-5(14H)-one], the IC50 is < 100 nM.
For `Cn1nncc1C#Cc1ccc2nc3n(c2c1)[C@@H]1C[C@H]3NC(=O)c2cccc(OC(F)F)c21` [Example 19, (7R,14R)-1-(difluoromethoxy)-11-((1-methyl-1H-1,2,3-triazol-5-yl)ethynyl)-6,7-dihydro-7,14-methanobenzo[f]benzo[4,5]imidazo[1,2-a][1,4]diazocin-5(14H)-one] the value was < 100 nM; for `[2H]C([2H])([2H])N1C(=O)c2cccc(OC(F)F)c2[C@H]2C[C@@H]1c1nc3ccc(C#Cc4cn(C)nc4C#N)cc3n12` [Example 20, 4-(((7R,14R)-1-(difluoromethoxy)-6-(methyl-d3)-5-oxo-5,6,7,14-tetrahydro-7,14-methanobenzo[f]benzo[4,5]imidazo[1,2-a][1,4]diazocin-11-yl)ethynyl)-1-methyl-1H-pyrazole-3-carbonitrile], < 100 nM.
For `[2H]C([2H])([2H])N1C(=O)c2cccc(OC(F)F)c2[C@H]2C[C@@H]1c1nc3ccc(C#Cc4cnc(C)nc4)cc3n12` [Example 21, (7R,14R)-1-(difluoromethoxy)-6-(methyl-d3)-11-((2-methylpyrimidin-5-yl)ethynyl)-6,7-dihydro-7,14-methanobenzo[f]benzo[4,5]imidazo[1,2-a][1,4]diazocin-5(14H)-one] the value was < 100 nM; for `[2H]C([2H])([2H])N1C(=O)c2cccc(OC(F)F)c2[C@H]2C[C@@H]1c1nc3ccc(C#Cc4cnccn4)cc3n12` [Example 22, (7R,14R)-1-(difluoromethoxy)-6-(methyl-d3)-11-(pyrazin-2-ylethynyl)-6,7-dihydro-7,14-methanobenzo[f]benzo[4,5]imidazo[1,2-a][1,4]diazocin-5(14H)-one], < 100 nM; for `[2H]C([2H])([2H])N1C(=O)c2cccc(OC(F)F)c2[C@H]2C[C@@H]1c1nc3ccc(C#Cc4cnc(C(F)(F)F)nc4)cc3n12` [Example 23, (7R,14R)-1-(difluoromethoxy)-6-(methyl-d3)-11-((2-(trifluoromethyl)pyrimidin-5-yl)ethynyl)-6,7-dihydro-7,14-methanobenzo[f]benzo[4,5]imidazo[1,2-a][1,4]diazocin-5(14H)-one], 100 to 1000 nM.
For `[2H]C([2H])([2H])N1C(=O)c2cccc(OC(F)F)c2[C@H]2C[C@@H]1c1nc3ccc(C#Cc4cnn(C)c4C#N)cc3n12` [Example 24, 4-(((7R,14R)-1-(difluoromethoxy)-6-(methyl-d3)-5-oxo-5,6,7,14-tetrahydro-7,14-methanobenzo[f]benzo[4,5]imidazo[1,2-a][1,4]diazocin-11-yl)ethynyl)-1-methyl-1H-pyrazole-5-carbonitrile] the value was < 100 nM; for `[2H]C([2H])([2H])N1C(=O)c2cccc(OC(F)F)c2[C@H]2C[C@@H]1c1nc3ccc(C#Cc4nncn4C)cc3n12` [Example 25, (7R,14R)-1-(difluoromethoxy)-6-(methyl-d3)-11-((4-methyl-4H-1,2,4-triazol-3-yl)ethynyl)-6,7-dihydro-7,14-methanobenzo[f]benzo[4,5]imidazo[1,2-a][1,4]diazocin-5(14H)-one], 1000 to 10000 nM; for `[2H]C([2H])([2H])N1C(=O)c2cccc(OC(F)F)c2[C@H]2C[C@@H]1c1nc3ccc(C#Cc4ccc(C)nn4)cc3n12` [Example 26, (7R,14R)-1-(difluoromethoxy)-6-(methyl-d3)-11-((6-methylpyridazin-3-yl)ethynyl)-6,7-dihydro-7,14-methanobenzo[f]benzo[4,5]imidazo[1,2-a][1,4]diazocin-5(14H)-one], 100 to 1000 nM.
As to `[2H]C([2H])([2H])N1C(=O)c2cccc(OC(F)F)c2[C@H]2C[C@@H]1c1nc3ccc(C#CC(=O)OC)cc3n12` [Example 27, methyl 3-((7R,14R)-1-(difluoromethoxy)-6-(methyl-d3)-5-oxo-5,6,7,14-tetrahydro-7,14-methanobenzo[f]benzo[4,5]imidazo[1,2-a][1,4]diazocin-11-yl)propiolate], the IC50 is < 100 nM.
For `[2H]C([2H])([2H])N1C(=O)c2cccc(OC(F)F)c2[C@H]2C[C@@H]1c1nc3ccc(C#Cc4nnc(C)o4)cc3n12` [Example 28, (7R,14R)-1-(difluoromethoxy)-6-(methyl-d3)-11-((5-methyl-1,3,4-oxadiazol-2-yl)ethynyl)-6,7-dihydro-7,14-methanobenzo[f]benzo[4,5]imidazo[1,2-a][1,4]diazocin-5(14H)-one] the value was < 100 nM.
For `[2H]C([2H])([2H])N1C(=O)c2cccc(OC(F)F)c2[C@H]2C[C@@H]1c1nc3ccc(C#Cc4nnc(C)s4)cc3n12` [Example 29, (7R,14R)-1-(difluoromethoxy)-6-(methyl-d3)-11-((5-methyl-1,3,4-thiadiazol-2-yl)ethynyl)-6,7-dihydro-7,14-methanobenzo[f]benzo[4,5]imidazo[1,2-a][1,4]diazocin-5(14H)-one] the value was < 100 nM; for `[2H]C([2H])([2H])N1C(=O)c2cccc(OC(F)F)c2[C@H]2C[C@@H]1c1nc3ccc(C#Cc4nncs4)cc3n12` [Example 30, (7R,14R)-11-((1,3,4-thiadiazol-2-yl)ethynyl)-1-(difluoromethoxy)-6-(methyl-d3)-6,7-dihydro-7,14-methanobenzo[f]benzo[4,5]imidazo[1,2-a][1,4]diazocin-5(14H)-one], < 100 nM.
Under `[2H]C([2H])([2H])N1C(=O)c2cccc(OC(F)F)c2[C@H]2C[C@@H]1c1nc3ccc(C#Cc4cncc(F)c4)cc3n12` [Example 31, (7R,14R)-1-(difluoromethoxy)-11-((5-fluoropyridin-3-yl)ethynyl)-6-(methyl-d3)-6,7-dihydro-7,14-methanobenzo[f]benzo[4,5]imidazo[1,2-a][1,4]diazocin-5(14H)-one] stands < 100 nM; under `[2H]C([2H])([2H])N1C(=O)c2cccc(OC(F)F)c2[C@H]2C[C@@H]1c1nc3ccc(C#Cc4cncs4)cc3n12` [Example 32, (7R,14R)-1-(difluoromethoxy)-6-(methyl-d3)-11-(thiazol-5-ylethynyl)-6,7-dihydro-7,14-methanobenzo[f]benzo[4,5]imidazo[1,2-a][1,4]diazocin-5(14H)-one], < 100 nM.
Regarding `[2H]C([2H])([2H])N1C(=O)c2cccc(OC(F)F)c2[C@H]2C[C@@H]1c1nc3ccc(C#Cc4cccnn4)cc3n12` [Example 33, (7R,14R)-1-(difluoromethoxy)-6-(methyl-d3)-11-(pyridazin-3-ylethynyl)-6,7-dihydro-7,14-methanobenzo[f]benzo[4,5]imidazo[1,2-a][1,4]diazocin-5(14H)-one], the IC50 lay in the range of 10000 to 30000 nM.
For `[2H]C([2H])([2H])N1C(=O)c2cccc(OC(F)F)c2[C@H]2C[C@@H]1c1nc3ccc(C#Cc4cnc(C)cn4)cc3n12` [Example 34, (7R,14R)-1-(difluoromethoxy)-6-(methyl-d3)-11-((5-methylpyrazin-2-yl)ethynyl)-6,7-dihydro-7,14-methanobenzo[f]benzo[4,5]imidazo[1,2-a][1,4]diazocin-5(14H)-one] the value was < 100 nM.
For `[2H]C([2H])([2H])N1C(=O)c2cccc(OC(F)F)c2[C@H]2C[C@@H]1c1nc3ccc(C#CC4(O)CCC4)cc3n12` [Example 35, (7R,14R)-1-(difluoromethoxy)-11-((1-hydroxycyclobutyl)ethynyl)-6-(methyl-d3)-6,7-dihydro-7,14-methanobenzo[f]benzo[4,5]imidazo[1,2-a][1,4]diazocin-5(14H)-one] the value was 10000 to 30000 nM.
Take `[2H]C([2H])([2H])N1C(=O)c2cccc(OC(F)F)c2[C@H]2C[C@@H]1c1nc3ccc(C#Cc4cnsc4)cc3n12` [Example 36, (7R,14R)-1-(difluoromethoxy)-11-(isothiazol-4-ylethynyl)-6-(methyl-d3)-6,7-dihydro-7,14-methanobenzo[f]benzo[4,5]imidazo[1,2-a][1,4]diazocin-5(14H)-one]: the IC50 was < 100 nM.
